{
  "source": "ChEMBL document CHEMBL2407028",
  "about": "“Discovery of novel oxazolidinedione derivatives as potent and selective mineralocorticoid receptor antagonists” (Bioorg Med Chem Lett, 2013)",
  "key": {"Glucocorticoid receptor [1]": {"target": "T1, Glucocorticoid receptor (Homo sapiens, UniProt P04150)", "T1 sequence (P04150 whole entry)": "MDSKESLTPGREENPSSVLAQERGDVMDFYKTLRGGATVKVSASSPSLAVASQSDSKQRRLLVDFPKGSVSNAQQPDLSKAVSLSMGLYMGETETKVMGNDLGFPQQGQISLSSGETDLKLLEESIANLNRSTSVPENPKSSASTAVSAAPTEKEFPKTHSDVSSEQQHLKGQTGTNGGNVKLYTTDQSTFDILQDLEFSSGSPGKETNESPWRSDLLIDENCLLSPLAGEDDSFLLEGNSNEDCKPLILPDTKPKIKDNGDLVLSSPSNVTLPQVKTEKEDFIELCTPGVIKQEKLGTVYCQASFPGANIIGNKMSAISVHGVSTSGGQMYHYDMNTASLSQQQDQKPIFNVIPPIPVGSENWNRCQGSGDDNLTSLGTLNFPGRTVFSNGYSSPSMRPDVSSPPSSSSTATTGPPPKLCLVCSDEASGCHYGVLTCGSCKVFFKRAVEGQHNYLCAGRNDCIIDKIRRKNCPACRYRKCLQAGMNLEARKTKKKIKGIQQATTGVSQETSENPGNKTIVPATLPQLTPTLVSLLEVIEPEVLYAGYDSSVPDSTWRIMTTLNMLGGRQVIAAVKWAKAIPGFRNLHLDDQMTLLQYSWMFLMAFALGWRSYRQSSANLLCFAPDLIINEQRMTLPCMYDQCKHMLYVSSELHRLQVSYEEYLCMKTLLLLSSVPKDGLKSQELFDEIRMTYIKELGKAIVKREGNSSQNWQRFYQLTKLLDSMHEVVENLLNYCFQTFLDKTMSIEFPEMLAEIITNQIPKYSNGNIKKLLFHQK", "test": "Antagonist activity at glucocorticoid receptor (unknown origin) by NH Pro assay"}, "Glucocorticoid receptor [2]": {"target": "T1, Glucocorticoid receptor", "test": "Agonist activity at glucocorticoid receptor (unknown origin) by NH Pro assay"}},
  "note": "pEC50, pIC50: −log10 of the molar value.",
  "data": [
    {"smiles": "COc1cc(CNC(=O)[C@@]2(Cc3ccccc3)OC(=O)N([C@@H]3CCc4ccccc43)C2=O)cc(OC)c1", "values": [
      {"measurement": "pIC50", "setting": "Glucocorticoid receptor [1]", "value": "< 4.70"},
      {"measurement": "pEC50", "setting": "Glucocorticoid receptor [2]", "value": "< 4.70"}
    ]},
    {"smiles": "C[C@H](c1ccc(F)cc1)N1C(=O)O[C@](Cc2ccc(F)cc2)(C(=O)NCc2ccc(Cl)c(Cl)c2)C1=O", "values": [
      {"measurement": "pIC50", "setting": "Glucocorticoid receptor [1]", "value": 4.96},
      {"measurement": "pEC50", "setting": "Glucocorticoid receptor [2]", "value": "< 4.70"}
    ]}
  ]
}
